The source made the active and inactive calls.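 The calls were made as follows: active = compounds giving half or more protection of infected cells from virus-caused growth loss, again on retest; inactive = the rest.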
Tested on: CEM cells HIV-1 protection, formazan growth assay
Test: NCI AIDS Antiviral Assay
Conditions: for IC50: measured here: growth of uninfected CEM cells
How it was run: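 Five concentrations of each compound were applied to infected and uninfected human CEM cells. Protection from HIV-1 was judged from growth measured with a soluble formazan assay.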

Compound	EC50 [µM]	IC50 [µM]	outcome
CCOP(=O)(OCC)OP(=O)(OCC)OCC	> 871	> 871	
O=S1(=O)OC(c2ccc(O)cc2)(c2ccc(O)cc2)c2ccccc21			inactive
CC(=O)N1CN2C(=O)CCC2c2ccccc21 (stereo not drawn)			inactive
O=Cc1[nH]c(=O)[nH]c(=O)c1C(=O)O	> 200	> 200	
Cc1cn(CCCCCOC(=O)NC(CCCNC(N)=O)C(=O)O)c(=O)[nH]c1=O (stereo not drawn)	> 200	> 200	
O=C(O)c1cc2ccccc2c(Br)c1O.O=[N+]([O-])C1CCC(O)C2[N-]CCCC21.[Cu+]	> 200	3.39	
CCCCCCC(/C=N/O)C(C)(O)CCC (stereo not drawn)	> 112	> 112	
Cc1c2ccccc2nc(CS(=O)(=O)c2ccccc2)[n+]1[O-]	> 200	12.6	
N#CC(N)c1ccc(OCCCCCCCCCCOc2ccc(C(N)C#N)cc2)cc1 (stereo not drawn)	> 200	115	
COc1cc2c3c(c1)C(O)CC[N+]3(C)CCC2 (stereo not drawn)	> 200	> 200	
CCn1c(=O)c2c3cc(OC(C)=O)ccc3oc2c2ccc(OC(C)=O)cc21	> 200	53.7	
[C-]#[O+].[C-]#[O+].[C-]#[O+].[C-]#[O+].[Mo].c1ccc(P(CCP(CCP(c2ccccc2)c2ccccc2)c2ccccc2)CCP(c2ccccc2)c2ccccc2)cc1 (stereo not drawn)	> 0.617	> 0.617	
CC(C)(C)c1cc(C(O)(C(=O)O)C(=O)O)cc(C(C)(C)C)c1O	> 200	> 200	
CO[C@@](c1ccccc1)(c1nc(C#N)c(N)o1)C(F)(F)F	79.4	115	
COC(=O)c1c(C(=O)OC)c(-c2ccccc2)n(-c2ccccc2)c(=O)c1-c1ccccc1			inactive
O=C1C(c2[nH]c3cc4c(cc3c2O)OCO4)=Nc2cc3c(cc21)OCO3	> 100	14.8	
CCN(CC)CCCNc1nc2ccccc2c2c1ncn2CC(C)C	> 200	41.7	
COc1c2occc2c(N=Cc2c[nH]c3ccccc23)c2ccc(=O)oc12	> 50.1	28.2	
CCCCC1C(=O)N2c3ccccc3-c3ccccc3N2C1=O			inactive
CCOC(=O)NC(Nc1ccc(F)cc1)(C(=O)OCC)C(F)(F)F (stereo not drawn)			inactive
CC(=O)OCC12C(=O)C[C@@H](C)C3(CC(c4ccoc4)OC3=O)C1CCC(OC(C)=O)C21CO1 (stereo partly drawn)	> 200	135	
C=CC(C)(C)[C@@]12CC3C(=O)N[C@@H](CC(C)C)C(=O)N3[C@@H]1N(C(C)=O)c1ccccc12 (stereo partly drawn)	> 30.2	> 30.2	
O=P(O)(O)OC1C(OP(=O)(O)O)C(OP(=O)(O)O)C(OP(=O)(O)O)C(OP(=O)(O)O)C1OP(=O)(O)O.[Zn+2] (stereo not drawn)	> 100	> 100	
COc1cc2c(cc1OC)C(CSC)Cc1cc(OC)c(OC)cc1N(C)CCC2 (stereo not drawn)	> 31.6	> 31.6	
O=c1[nH]c2ncsc2c(=O)n1O	> 200	5.01	
COc1nn(C)c(=O)c2cccnc12	> 1100	676	

Compound	EC50 [µM]	IC50 [µM]	outcome
N#C/C(=C\c1cccc(F)c1)C(=O)c1ccccc1	> 39.8	> 39.8	
CC(=O)CCCCn1c(=O)c2c(nc(Br)n2C)n(C)c1=O	> 200	52.5	
O=C(Nc1ccn(C2CCC(COC(c3ccccc3)(c3ccccc3)c3ccccc3)O2)c(=O)n1)c1ccccc1 (stereo not drawn)	> 200	9.77	
Nc1ccc2[se]nc3c2c1C(=O)c1ccccc1-3	> 6.76	> 6.76	
COC(=O)C12CCC(C(=O)OC)(CC1)n1c(=O)n(-c3ccccc3)c(=O)n12	> 200	> 200	
C=CCOCCCC(=O)C(=[N+]=[N-])C(=O)OC	> 251	57.5	
O=P1(Nc2ccc(/C=C3\C=Cc4ccccc43)cc2)NCCCO1 (stereo not drawn)	> 39.8	22.9	
O=S1(=O)C(c2ccccc2)C(N2CCCCC2)C1C1CC2c3ccccc3C1c1ccccc12 (stereo not drawn)	> 200	8.32	
CCc1oc2ccc(OC)c3c2c1C=CC=C3			inactive
CC(C)(C)/C(O)=C\c1nc2ccc(C(F)(F)F)cc2[nH]c1=O	> 200	> 200	
CCOC(=O)c1cn(C)c2c1C(=O)C(C(=O)OCC)CCN2C(=O)OCC (stereo not drawn)	> 240	> 240	
COc1ccc(C(c2c(O)c3ccccc3oc2=O)N2CCCC2)c(OC)c1 (stereo not drawn)	> 200	95.5	
CCOC(=O)/C(=C\c1ccc([N+](=O)[O-])cc1)P(=O)(OCC)OCC	> 20.4	10.2	
CCOC(=O)c1nc2cc(C(F)(F)F)ccc2nc1Oc1ccc(C#N)cc1	> 200	93.3	
CC(=O)c1sc2c(c1OC(=O)c1ccc(Cl)cc1Cl)c(=O)n(-c1ccccc1)c(=S)n2-c1ccccc1	> 200	0.0631	
CCCCOC(=O)NC(Nc1ccc(S(N)(=O)=O)cc1)(C(F)(F)F)C(F)(F)F	> 200	> 200	
OC1(c2ccccc2)CC2CCC(C1)N2CCCC(O)(c1ccccc1)c1ccccc1 (stereo not drawn)	> 200	28.8	
N=C1N(c2ccccc2)C(=O)C23CCCC2C13N1CCOCC1 (stereo not drawn)	> 219	> 219	
CC1C=C(CCCCCCCCCCCC[C@@H](O)[C@@H]2CC[C@@H]([C@@H]3CC[C@@H](C(O)CCCCCCCCCCCCC4=C[C@H](C)OC4=O)O3)O2)C(=O)O1 (stereo partly drawn)	> 200	0.204	
COc1cc2c(c([N+](=O)[O-])c1)NCCS2	> 200	> 200	
CC(OC(C)(C)C)C(NC(=O)C(Cc1ccccc1)NC(=O)C(NC(=O)C(CCCCNC(=O)OC(C)(C)C)NC(=O)C(Cc1c[nH]c2ccccc12)C(=O)NC(Cc1ccccc1)NC(=O)C(Cc1ccccc1)NC(=O)C(CC(N)=O)NC(=O)C(N)CCCCNC(=O)OC(C)(C)C)C(C)OC(C)(C)C)C(=O)NC(COC(C)(C)C)C(=O)NC(CSC(C)(C)C)C(=O)OC(C)(C)C (stereo not drawn)	87.1	> 200	
CC(=O)OC1C2CCC1C1C2N=NN1c1ccc([N+](=O)[O-])cc1 (stereo not drawn)	> 151	> 151	
O=C(O)c1cccc2c(=O)c3ccccc3oc12	> 977	209	
Cc1cc2c(O)c(c1)COCc1cc(C)cc(c1O)COCc1cc(C)cc(c1O)COC2	> 200	138	
Cc1[nH]nc2c1NC(=O)OC(C)C2 (stereo not drawn)	132	490	
Cc1c(/C=N/NC(=O)c2cc(Br)cc(Br)c2O)c(=O)n(-c2ccccc2)n1C	> 200	123	
